Usually Ki stands for a dissociation constant, usually derived from enzyme kinetics or from competition with a known ligand. What is called inhibition is the share of the control response that was lost under treatment. Broadly, the residual activity is what remains of the control signal, in per cent.

Data set [1] addresses T1, D(4) dopamine receptor (Homo sapiens, UniProt P21917).
T1 sequence (P21917 whole entry): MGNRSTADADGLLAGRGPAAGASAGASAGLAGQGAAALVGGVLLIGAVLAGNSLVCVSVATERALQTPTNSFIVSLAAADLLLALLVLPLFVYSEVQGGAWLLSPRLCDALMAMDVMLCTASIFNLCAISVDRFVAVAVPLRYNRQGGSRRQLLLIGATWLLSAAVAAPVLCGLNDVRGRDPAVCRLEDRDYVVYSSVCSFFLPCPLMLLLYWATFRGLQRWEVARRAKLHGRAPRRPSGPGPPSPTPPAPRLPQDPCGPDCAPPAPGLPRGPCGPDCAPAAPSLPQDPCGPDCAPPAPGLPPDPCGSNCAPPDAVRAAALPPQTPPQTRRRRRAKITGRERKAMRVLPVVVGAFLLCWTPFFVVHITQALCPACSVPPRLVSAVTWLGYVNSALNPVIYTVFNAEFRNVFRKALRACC
The data set can be described thus: Radioligand assay using 3[H] A-369508.

The target of data set [2] is D(4) dopamine receptor (Homo sapiens, UniProt P21917). As to the kind of experiment: Radioligand assay (DRD4.7).
For data set [3], the target named is Sodium-dependent dopamine transporter (Homo sapiens) (UniProt Q01959). As to the kind of experiment: DA transporter CEREP ligand profiling. The following applies: Compound concentration 10.0 uM.
Chain of Sodium-dependent dopamine transporter (Homo sapiens) (Q01959 whole entry): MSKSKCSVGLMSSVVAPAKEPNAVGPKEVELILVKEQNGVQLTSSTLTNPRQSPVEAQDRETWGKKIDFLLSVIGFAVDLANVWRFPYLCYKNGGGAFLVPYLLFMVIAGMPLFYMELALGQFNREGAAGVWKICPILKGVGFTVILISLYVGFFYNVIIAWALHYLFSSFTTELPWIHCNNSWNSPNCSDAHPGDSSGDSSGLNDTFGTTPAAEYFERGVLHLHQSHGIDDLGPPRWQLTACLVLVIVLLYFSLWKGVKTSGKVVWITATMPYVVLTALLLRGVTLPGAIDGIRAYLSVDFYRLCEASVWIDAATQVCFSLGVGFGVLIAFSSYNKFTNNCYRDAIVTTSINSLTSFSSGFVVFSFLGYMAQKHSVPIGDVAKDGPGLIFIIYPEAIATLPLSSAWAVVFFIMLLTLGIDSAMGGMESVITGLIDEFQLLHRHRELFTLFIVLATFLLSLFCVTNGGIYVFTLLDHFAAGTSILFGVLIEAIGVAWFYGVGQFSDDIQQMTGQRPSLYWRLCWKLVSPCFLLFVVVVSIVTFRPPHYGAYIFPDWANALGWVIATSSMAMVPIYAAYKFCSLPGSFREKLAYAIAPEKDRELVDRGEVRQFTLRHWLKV
Data set [4] deals with Histamine H1 receptor (Homo sapiens) (UniProt P35367). As to the kind of experiment: H1 CEREP ligand profiling. Particulars: Compound concentration 10.0 uM.
Chain of Histamine H1 receptor (Homo sapiens) (P35367 whole entry): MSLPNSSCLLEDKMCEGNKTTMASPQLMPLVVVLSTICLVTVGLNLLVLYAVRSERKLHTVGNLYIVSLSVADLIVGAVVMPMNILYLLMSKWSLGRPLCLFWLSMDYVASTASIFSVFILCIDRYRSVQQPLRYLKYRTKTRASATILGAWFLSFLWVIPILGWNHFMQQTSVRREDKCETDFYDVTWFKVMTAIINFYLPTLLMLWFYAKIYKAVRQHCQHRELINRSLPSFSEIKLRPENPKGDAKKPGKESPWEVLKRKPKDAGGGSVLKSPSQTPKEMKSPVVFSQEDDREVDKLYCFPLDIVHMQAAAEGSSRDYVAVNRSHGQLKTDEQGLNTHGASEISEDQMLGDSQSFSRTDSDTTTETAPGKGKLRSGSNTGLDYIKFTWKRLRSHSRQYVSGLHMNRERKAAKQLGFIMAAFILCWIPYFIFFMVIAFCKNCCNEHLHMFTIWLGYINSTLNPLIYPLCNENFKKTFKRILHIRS
The target of data set [5] is 5-hydroxytryptamine receptor 1A (Homo sapiens) (UniProt P08908). As to the kind of experiment: 5-HT1A CEREP ligand profiling. Particulars: Compound concentration 10.0 uM.
Chain of 5-hydroxytryptamine receptor 1A (Homo sapiens) (P08908 whole entry): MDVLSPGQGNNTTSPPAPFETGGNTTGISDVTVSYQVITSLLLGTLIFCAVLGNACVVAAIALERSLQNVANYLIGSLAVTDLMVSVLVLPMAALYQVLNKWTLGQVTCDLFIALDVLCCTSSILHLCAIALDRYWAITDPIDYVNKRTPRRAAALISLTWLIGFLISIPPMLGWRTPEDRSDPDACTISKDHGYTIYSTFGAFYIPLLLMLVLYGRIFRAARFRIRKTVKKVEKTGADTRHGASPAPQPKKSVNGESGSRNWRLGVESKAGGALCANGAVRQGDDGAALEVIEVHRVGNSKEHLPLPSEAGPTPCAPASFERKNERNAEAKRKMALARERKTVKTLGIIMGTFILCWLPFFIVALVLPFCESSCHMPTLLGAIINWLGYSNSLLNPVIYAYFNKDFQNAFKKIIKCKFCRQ
The target in data set [6] is 5-hydroxytryptamine receptor 5A (Homo sapiens) (UniProt P47898). The data set can be described thus: 5-HT5A CEREP ligand profiling. The following applies: Compound concentration 10.0 uM.
For data set [7], the target named is Voltage-gated L-type calcium channel (Ca2+ channel) (Homo sapiens, UniProt O60840+Q01668+Q13698+Q13936). The data set can be described thus: Ca2+ channel CEREP ligand profiling. The class given is protein assay. Particulars: compound concentration 10 uM.
Data set [8] deals with Natriuretic peptides A (Homo sapiens) (UniProt P01160). The following applies: Compound concentration 10.0 uM.
Chain of Natriuretic peptides A (Homo sapiens) (P01160 whole entry): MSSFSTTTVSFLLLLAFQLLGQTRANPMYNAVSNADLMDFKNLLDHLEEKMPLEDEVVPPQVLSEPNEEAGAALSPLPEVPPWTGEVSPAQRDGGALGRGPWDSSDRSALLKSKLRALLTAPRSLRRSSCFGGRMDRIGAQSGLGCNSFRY
Description: ANP CEREP ligand profiling
Data set [9] concerns the target Translocator protein (Rattus norvegicus) (UniProt P16257). Particulars: Compound concentration 10.0 uM.
Description: BZD (peripheral) CEREP ligand profiling
Data set [10] has as its target Bombesin receptor (Homo sapiens) (UniProt P28336+P32247+P30550). Particulars: Compound concentration 10.0 uM.
Description: Bombesin CEREP ligand profiling
Data set [11] has as its target D(2) dopamine receptor (Homo sapiens) (UniProt P14416). Particulars: Compound concentration 10.0 uM.
Description: D2 CEREP ligand profiling
Data set [12] has as its target Galanin receptor type 1 (Homo sapiens) (UniProt P47211). Particulars: Compound concentration 10.0 uM.
Description: GAL1 CEREP ligand profiling
Data set [13] concerns the target C-C chemokine receptor type 1 (Homo sapiens) (UniProt P32246). Particulars: Compound concentration 10.0 uM.
Description: CCR1 CEREP ligand profiling
Data set [14] has as its target Histamine H2 receptor (Homo sapiens) (UniProt P25021). Particulars: Compound concentration 10.0 uM.
Description: H2 CEREP ligand profiling
For data set [15], the target named is Neuropeptide Y receptor type 1 (Homo sapiens) (UniProt P25929). The following applies: Compound concentration 10.0 uM.
Chain of Neuropeptide Y receptor type 1 (Homo sapiens) (P25929 whole entry): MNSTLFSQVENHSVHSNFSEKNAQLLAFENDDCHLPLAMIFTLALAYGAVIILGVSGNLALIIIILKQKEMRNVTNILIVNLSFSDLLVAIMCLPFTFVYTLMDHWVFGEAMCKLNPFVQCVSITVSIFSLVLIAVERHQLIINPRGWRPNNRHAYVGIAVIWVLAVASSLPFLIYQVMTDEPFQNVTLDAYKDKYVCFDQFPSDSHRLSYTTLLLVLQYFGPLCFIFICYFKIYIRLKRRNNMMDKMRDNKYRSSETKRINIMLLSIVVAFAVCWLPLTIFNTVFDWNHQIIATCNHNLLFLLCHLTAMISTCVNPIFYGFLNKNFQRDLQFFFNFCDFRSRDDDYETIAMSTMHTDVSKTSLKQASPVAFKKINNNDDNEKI
Description: Y1 CEREP ligand profiling
In data set [16] the target is Neurotensin receptor type 1 (Homo sapiens) (UniProt P30989). The following applies: Compound concentration 10.0 uM.
Description: NT1 (NTS1) CEREP ligand profiling
Data set [17] has as its target Nociceptin receptor (Homo sapiens) (UniProt P41146). Particulars: Compound concentration 10.0 uM.
Description: ORL1 CEREP ligand profiling
In data set [18] the target is 5-hydroxytryptamine receptor 1B (Homo sapiens) (UniProt P28222). Particulars: Compound concentration 10.0 uM.
Chain of 5-hydroxytryptamine receptor 1B (Homo sapiens) (P28222 whole entry): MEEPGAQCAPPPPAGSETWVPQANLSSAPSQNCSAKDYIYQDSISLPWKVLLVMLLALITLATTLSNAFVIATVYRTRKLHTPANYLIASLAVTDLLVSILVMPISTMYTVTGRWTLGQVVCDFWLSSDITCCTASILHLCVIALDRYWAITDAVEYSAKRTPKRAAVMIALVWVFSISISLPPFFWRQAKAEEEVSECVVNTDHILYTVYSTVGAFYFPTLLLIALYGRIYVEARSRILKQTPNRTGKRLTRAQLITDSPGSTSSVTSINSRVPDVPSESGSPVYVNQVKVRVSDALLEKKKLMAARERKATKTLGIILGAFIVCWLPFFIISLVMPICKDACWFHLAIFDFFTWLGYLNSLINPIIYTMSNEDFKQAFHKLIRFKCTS
Description: 5-HT1B CEREP ligand profiling
Data set [19] deals with Somatostatin receptor (Homo sapiens) (UniProt P35346+P30874+P31391+P30872+P32745). Particulars: Compound concentration 10.0 uM.
Description: Somatostatin CEREP ligand profiling
The target of data set [20] is Dual specificity protein kinase CLK4 (Homo sapiens) (UniProt Q9HAZ1). Particulars: Compound concentration 1000.0 nM.
Chain of Dual specificity protein kinase CLK4 (Homo sapiens) (Q9HAZ1 whole entry, looked up): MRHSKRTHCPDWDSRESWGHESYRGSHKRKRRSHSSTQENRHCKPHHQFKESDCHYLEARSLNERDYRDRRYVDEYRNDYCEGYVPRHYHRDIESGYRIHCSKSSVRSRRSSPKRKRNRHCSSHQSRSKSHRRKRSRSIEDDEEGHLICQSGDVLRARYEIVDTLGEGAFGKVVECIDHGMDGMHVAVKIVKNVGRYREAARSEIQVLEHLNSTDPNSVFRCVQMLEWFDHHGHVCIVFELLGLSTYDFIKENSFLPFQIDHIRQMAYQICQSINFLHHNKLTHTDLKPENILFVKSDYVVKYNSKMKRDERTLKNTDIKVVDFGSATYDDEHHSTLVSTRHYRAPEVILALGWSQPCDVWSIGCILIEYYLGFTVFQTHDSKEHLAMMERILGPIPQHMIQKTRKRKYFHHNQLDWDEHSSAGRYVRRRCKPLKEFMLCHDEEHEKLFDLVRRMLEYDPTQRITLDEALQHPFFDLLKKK

Molecules are shown by their SMILES. Calls of active or inactive are those of the source. The calls are words filed in the database; no cut-off is given here.

Chain of Galanin receptor type 1 (Homo sapiens) (P47211 whole entry): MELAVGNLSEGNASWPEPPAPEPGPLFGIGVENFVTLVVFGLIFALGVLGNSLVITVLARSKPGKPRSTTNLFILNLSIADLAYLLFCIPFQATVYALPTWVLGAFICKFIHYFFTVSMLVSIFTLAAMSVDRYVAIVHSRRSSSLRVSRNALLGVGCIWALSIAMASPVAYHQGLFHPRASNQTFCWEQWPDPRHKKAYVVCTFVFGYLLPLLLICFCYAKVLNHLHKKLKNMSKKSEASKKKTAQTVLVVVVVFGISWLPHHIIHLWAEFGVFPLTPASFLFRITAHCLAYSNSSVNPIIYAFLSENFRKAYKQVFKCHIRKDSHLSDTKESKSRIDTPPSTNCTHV
Chain of D(2) dopamine receptor (Homo sapiens) (P14416 whole entry): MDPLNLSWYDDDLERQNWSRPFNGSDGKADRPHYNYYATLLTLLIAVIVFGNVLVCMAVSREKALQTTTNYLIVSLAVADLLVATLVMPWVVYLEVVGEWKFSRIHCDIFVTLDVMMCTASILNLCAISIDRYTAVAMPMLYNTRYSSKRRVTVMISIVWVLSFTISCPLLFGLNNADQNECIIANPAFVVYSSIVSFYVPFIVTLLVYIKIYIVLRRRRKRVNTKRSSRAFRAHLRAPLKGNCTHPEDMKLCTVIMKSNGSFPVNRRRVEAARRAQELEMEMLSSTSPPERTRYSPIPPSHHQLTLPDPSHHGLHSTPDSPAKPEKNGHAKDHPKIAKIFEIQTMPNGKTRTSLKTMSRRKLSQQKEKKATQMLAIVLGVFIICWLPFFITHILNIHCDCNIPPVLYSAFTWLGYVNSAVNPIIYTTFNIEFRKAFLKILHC
Chain of Histamine H2 receptor (Homo sapiens) (P25021 whole entry): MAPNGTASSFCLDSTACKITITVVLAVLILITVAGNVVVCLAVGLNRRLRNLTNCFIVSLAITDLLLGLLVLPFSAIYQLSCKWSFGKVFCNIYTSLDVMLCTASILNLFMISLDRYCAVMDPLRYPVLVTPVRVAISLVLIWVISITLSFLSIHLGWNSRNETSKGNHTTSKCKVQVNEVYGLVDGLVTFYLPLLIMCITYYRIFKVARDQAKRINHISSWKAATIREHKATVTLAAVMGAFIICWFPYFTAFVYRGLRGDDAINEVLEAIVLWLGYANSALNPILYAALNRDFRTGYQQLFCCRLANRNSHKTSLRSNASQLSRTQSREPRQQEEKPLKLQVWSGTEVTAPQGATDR
Chain of Translocator protein (Rattus norvegicus) (P16257 whole entry, looked up): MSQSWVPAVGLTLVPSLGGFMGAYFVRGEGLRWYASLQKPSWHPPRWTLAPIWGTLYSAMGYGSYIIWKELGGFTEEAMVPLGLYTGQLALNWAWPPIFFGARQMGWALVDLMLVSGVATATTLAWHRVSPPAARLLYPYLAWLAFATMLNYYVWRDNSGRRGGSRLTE
Chain of C-C chemokine receptor type 1 (Homo sapiens) (P32246 whole entry): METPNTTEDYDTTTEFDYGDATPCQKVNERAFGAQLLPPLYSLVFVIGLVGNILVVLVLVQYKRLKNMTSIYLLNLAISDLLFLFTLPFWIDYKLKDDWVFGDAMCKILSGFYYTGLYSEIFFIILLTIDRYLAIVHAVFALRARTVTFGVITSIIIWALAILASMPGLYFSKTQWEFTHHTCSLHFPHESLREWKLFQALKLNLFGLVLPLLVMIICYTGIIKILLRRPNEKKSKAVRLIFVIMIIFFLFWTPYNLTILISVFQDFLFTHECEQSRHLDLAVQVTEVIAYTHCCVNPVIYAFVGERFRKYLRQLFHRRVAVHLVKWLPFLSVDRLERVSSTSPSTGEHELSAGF

Turning to `c1ccc(N2CCN(Cc3nc4ccccc4[nH]3)CC2)nc1` [ABT-724], the inhibition constant (Ki) at D(4) dopamine receptor [1] was 0.0575 µM (active); on D(4) dopamine receptor [2], 0.0468 µM (active). The inhibition is 11% in data set [3]; 17% in [4]; 73% in data set [5]; 21% in data set [6]; less than 10% in [8]; less than 10% in data set [9]. The inhibition in data set [10], in data set [11], in data set [12], in [13], in [14] and in data set [15] was less than 10% throughout. Also, the inhibition in data set [16], in [17], in data set [18] and in data set [19] was less than 10% throughout. For the same compound, the inhibition at 10 µM in [7] is < 10% (not active).

Take `CSc1cccnc1N1CCN(Cc2nc3ccccc3[nH]2)CC1` [A-769]: the residual activity in data set [20] is 100%.

For the origin of these results see ChEMBL document CHEMBL4507260 (2021).
